Source: patent US12310975B2, “Modulators of BCL6 proteolysis and associated methods of use” (Arvinas Operations, Inc., priority 2019, dated 2025)

Legend:
BCL6 [1] = target: T1, BCL6 (Homo sapiens (Human), UniProt P41182); assay: BCL6 TR-FRET assay (BCL6-Avitag-Biotin / BCoR-Cy5 peptide); format: binding; settings: read-out: IC50
Procedure, shortened: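 After 30 min room-temperature preincubation of compound titrations with 2 nM biotinylated BCL6-Avitag, 100 nM Cy5-labelled BCoR peptide plus 2 nM Eu-streptavidin were added and TR-FRET read 2 h later. HEPES pH 7.5/125 mM NaCl buffer with Triton X, glutathione (or DTT) and BSA.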

BCL6 [2] = target: T1, BCL6; assay: Immunofluorescence high content imaging of BCL6 degradation in T47D cells; format: cell-based; settings: T47D
Procedure, shortened: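 T47D cells were treated 3 days at 37 °C with an 11-point 3-fold dilution series (top 0.1 or 1 μM), then fixed, permeabilized and immunostained for BCL6 with Alexa-488 secondary, CellMask and Hoechst. BCL6 signal was imaged at 10×, 4 fields/well, with top-hat smoothing.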

Row | Structure (SMILES) | IC50 (BCL6 [1]) [nM] | Dmax (BCL6 [2]) [%]
1 | CNC(=O)COc1cc2cc(Nc3nc(N4CCC5(CC4)CC(OC4CCN(c6cccc(C(=O)NC7CCC(=O)NC7=O)c6F)CC4)C5)ncc3Cl)ccc2n(C(C)C)c1=O (stereo not shown) [compound 453, 3-[4-({7-[5-chloro-4-({3-[(methylcarbamoyl)methoxy]-2-oxo-1-(propan-2-yl)-1,2-dihydroquinolin-6-yl}amino)pyrimidin-2-yl]-7-azaspiro[3.5]nonan-2-yl}oxy)piperidin-1-yl]-N-(2,6-dioxopiperidin-3-yl)-2-fluorobenzamide] | 10 to 50 | ≥ 70
2 | CNC(=O)COc1cc2cc(Nc3nc(N4CCN(CC5CCN(c6cccc7c6C(=O)N(C6CCC(=O)NC6=O)C7=O)CC5)CC4)ncc3Cl)ccc2n(CCOC)c1=O (stereo not shown) [compound 454, 2-{[6-({5-chloro-2-[4-({1-[2-(2,6-dioxopiperidin-3-yl)-1,3-dioxo-2,3-dihydro-1H-isoindol-4-yl]piperidin-4-yl}methyl)piperazin-1-yl]pyrimidin-4-yl}amino)-1-(2-methoxyethyl)-2-oxo-1,2-dihydroquinolin-3-yl]oxy}-N-methylacetamide] | < 10 | ≥ 70
3 | CNC(=O)COc1cc2cc(Nc3nc(N4CCC[C@H](COc5cccc6c5C(=O)N(C5CCC(=O)NC5=O)C6=O)C4)ncc3Cl)ccc2n(CCOC)c1=O (stereo partly drawn) [compound 455, 2-{[6-({5-chloro-2-[(3S)-3-({[2-(2,6-dioxopiperidin-3-yl)-1,3-dioxo-2,3-dihydro-1H-isoindol-4-yl]oxy}methyl)piperidin-1-yl]pyrimidin-4-yl}amino)-1-(2-methoxyethyl)-2-oxo-1,2-dihydroquinolin-3-yl]oxy}-N-methylacetamide] | 50 to 100 | ≥ 70
4 | CNC(=O)COc1cc2cc(Nc3nc(N4CCC(O[C@H]5C[C@H](COc6ccc7c(c6)C(=O)N(C6CCC(=O)NC6=O)C7=O)N(C)C5)CC4)ncc3Cl)ccc2n(C(C)C)c1=O (stereo partly drawn) [compound 458, 2-[(6-{[5-chloro-2-(4-{[(3S,5R)-5-({[2-(2,6-dioxopiperidin-3-yl)-1,3-dioxo-2,3-dihydro-1H-isoindol-5-yl]oxy}methyl)-1-methylpyrrolidin-3-yl]oxy}piperidin-1-yl)pyrimidin-4-yl]amino}-2-oxo-1-(propan-2-yl)-1,2-dihydroquinolin-3-yl)oxy]-N-methylacetamide] | 50 to 100 | ≥ 70
5 | CNC(=O)COc1cc2cc(Nc3nc(N4CCC(O[C@@H]5C[C@H](Oc6ccc7c(c6)C(=O)N(C6CCC(=O)NC6=O)C7=O)CN(C)C5)CC4)ncc3Cl)ccc2n(C(C)C)c1=O (stereo partly drawn) [compound 461, 2-[(6-{[5-chloro-2-(4-{[(3R,5S)-5-{[2-(2,6-dioxopiperidin-3-yl)-1,3-dioxo-2,3-dihydro-1H-isoindol-5-yl]oxy}-1-methylpiperidin-3-yl]oxy}piperidin-1-yl)pyrimidin-4-yl]amino}-2-oxo-1-(propan-2-yl)-1,2-dihydroquinolin-3-yl)oxy]-N-methylacetamide] | 10 to 50 | 50 to 70
6 | CNC(=O)COc1cc2cc(Nc3nc(N4CCC(CN5CCC(c6cc(OC)cc(C(=O)NC7CCC(=O)NC7=O)c6F)CC5)CC4)ncc3Cl)ccc2n(C(C)C)c1=O (stereo not shown) [compound 462, 3-[1-({1-[5-chloro-4-({3-[(methylcarbamoyl)methoxy]-2-oxo-1-(propan-2-yl)-1,2-dihydroquinolin-6-yl}amino)pyrimidin-2-yl]piperidin-4-yl}methyl)piperidin-4-yl]-N-(2,6-dioxopiperidin-3-yl)-2-fluoro-5-methoxybenzamide] | ≥ 100 | ≥ 70
7 | CNC(=O)COc1cc2cc(Nc3nc(N4CCC(O[C@@H]5C[C@@H](COc6ccc7c(c6)C(=O)N(C6CCC(=O)NC6=O)C7=O)N(C)C5)CC4)ncc3Cl)ccc2n(C(C)C)c1=O (stereo partly drawn) [compound 463, 2-[(6-{[5-chloro-2-(4-{[(3R,5S)-5-({[2-(2,6-dioxopiperidin-3-yl)-1,3-dioxo-2,3-dihydro-1H-isoindol-5-yl]oxy}methyl)-1-methylpyrrolidin-3-yl]oxy}piperidin-1-yl)pyrimidin-4-yl]amino}-2-oxo-1-(propan-2-yl)-1,2-dihydroquinolin-3-yl)oxy]-N-methylacetamide] | 10 to 50 | < 50
8 | CNC(=O)COc1cc2cc(Nc3nc(N4CCN(CC5CCN(c6cc(OC)cc(C(=O)NC7CCC(=O)NC7=O)c6F)CC5)CC4)ncc3Cl)ccc2n(C)c1=O (stereo not shown) [compound 465, 3-[4-({4-[5-chloro-4-({1-methyl-3-[(methylcarbamoyl)methoxy]-2-oxo-1,2-dihydroquinolin-6-yl}amino)pyrimidin-2-yl]piperazin-1-yl}methyl)piperidin-1-yl]-N-(2,6-dioxopiperidin-3-yl)-2-fluoro-5-methoxybenzamide] | < 10 | 50 to 70
9 | CNC(=O)COc1cc2cc(Nc3nc(N4CCC(CN5CCN(c6cc(OC)cc(C(=O)NC7CCC(=O)NC7=O)c6F)CC5)CC4)ncc3Cl)ccc2n(C(C)C)c1=O (stereo not shown) [compound 466, 3-[4-({1-[5-chloro-4-({3-[(methylcarbamoyl)methoxy]-2-oxo-1-(propan-2-yl)-1,2-dihydroquinolin-6-yl}amino)pyrimidin-2-yl]piperidin-4-yl}methyl)piperazin-1-yl]-N-(2,6-dioxopiperidin-3-yl)-2-fluoro-5-methoxybenzamide] | < 10 | 50 to 70
10 | CNC(=O)COc1cc2cc(Nc3nc(N4CCC(CN5CCC(c6cc(OC)cc(C(=O)NC7CCC(=O)NC7=O)c6F)CC5)CC4)ncc3Cl)ccc2n(C)c1=O (stereo not shown) [compound 467, 3-[1-({1-[5-chloro-4-({1-methyl-3-[(methylcarbamoyl)methoxy]-2-oxo-1,2-dihydroquinolin-6-yl}amino)pyrimidin-2-yl]piperidin-4-yl}methyl)piperidin-4-yl]-N-(2,6-dioxopiperidin-3-yl)-2-fluoro-5-methoxybenzamide] | 10 to 50 | < 50
11 | CNC(=O)COc1cc2cc(Nc3nc(N(C)C)ncc3Cl)ccc2n(CCCOc2ccc3c(c2)C(=O)N(C2CCC(=O)NC2=O)C3=O)c1=O (stereo not shown) [compound 469, 2-[(6-{[5-chloro-2-(dimethylamino)pyrimidin-4-yl]amino}-1-(3-{[2-(2,6-dioxopiperidin-3-yl)-1,3-dioxo-2,3-dihydro-1H-isoindol-5-yl]oxy}propyl)-2-oxo-1,2-dihydroquinolin-3-yl)oxy]-N-methylacetamide] | 10 to 50 | < 50
12 | CNC(=O)COc1cc2cc(Nc3nc(N(C)C)ncc3Cl)ccc2n(CCOc2ccc3c(c2)C(=O)N(C2CCC(=O)NC2=O)C3=O)c1=O (stereo not shown) [compound 470, 2-[(6-{[5-chloro-2-(dimethylamino)pyrimidin-4-yl]amino}-1-(2-{[2-(2,6-dioxopiperidin-3-yl)-1,3-dioxo-2,3-dihydro-1H-isoindol-5-yl]oxy}ethyl)-2-oxo-1,2-dihydroquinolin-3-yl)oxy]-N-methylacetamide] | 10 to 50 | < 50
13 | CNC(=O)COc1cc2cc(Nc3nc(N4CCC(O[C@H]5C[C@H](COc6cccc7c6C(=O)N(C6CCC(=O)NC6=O)C7=O)N(C)C5)CC4)ncc3Cl)ccc2n(C(C)C)c1=O (stereo partly drawn) [compound 471, 2-[(6-{[5-chloro-2-(4-{[(3S,5R)-5-({[2-(2,6-dioxopiperidin-3-yl)-1,3-dioxo-2,3-dihydro-1H-isoindol-4-yl]oxy}methyl)-1-methylpyrrolidin-3-yl]oxy}piperidin-1-yl)pyrimidin-4-yl]amino}-2-oxo-1-(propan-2-yl)-1,2-dihydroquinolin-3-yl)oxy]-N-methylacetamide] | 10 to 50 | < 50
14 | CNC(=O)COc1cc2cc(Nc3nc(N4CCN(CC5CCN(c6cc(OC)cc(C(=O)NC7CCC(=O)NC7=O)c6F)CC5)CC4)ncc3Cl)ccc2n(C(C)C)c1=O (stereo not shown) [compound 473, 3-[4-({4-[5-chloro-4-({3-[(methylcarbamoyl)methoxy]-2-oxo-1-(propan-2-yl)-1,2-dihydroquinolin-6-yl}amino)pyrimidin-2-yl]piperazin-1-yl}methyl)piperidin-1-yl]-N-(2,6-dioxopiperidin-3-yl)-2-fluoro-5-methoxybenzamide] | < 10 | 50 to 70
15 | CNC(=O)COc1cc2cc(Nc3nc(N4CCOCC4)ncc3Cl)ccc2n(CCCOc2ccc3c(c2)C(=O)N(C2CCC(=O)NC2=O)C3=O)c1=O (stereo not shown) [compound 474, 2-[(6-{[5-chloro-2-(morpholin-4-yl)pyrimidin-4-yl]amino}-1-(3-{[2-(2,6-dioxopiperidin-3-yl)-1,3-dioxo-2,3-dihydro-1H-isoindol-5-yl]oxy}propyl)-2-oxo-1,2-dihydroquinolin-3-yl)oxy]-N-methylacetamide] | 50 to 100 | < 50
16 | CNC(=O)COc1cc2cc(Nc3nc(N4CCOCC4)ncc3Cl)ccc2n(CCOc2ccc3c(c2)C(=O)N(C2CCC(=O)NC2=O)C3=O)c1=O (stereo not shown) [compound 475, 2-[(6-{[5-chloro-2-(morpholin-4-yl)pyrimidin-4-yl]amino}-1-(2-{[2-(2,6-dioxopiperidin-3-yl)-1,3-dioxo-2,3-dihydro-1H-isoindol-5-yl]oxy}ethyl)-2-oxo-1,2-dihydroquinolin-3-yl)oxy]-N-methylacetamide] | ≥ 100 | ≥ 70
17 | CNC(=O)COc1cc2cc(Nc3nc(N4CCC(O[C@H]5C[C@@H](COc6cccc7c6C(=O)N(C6CCC(=O)NC6=O)C7=O)N(C)C5)CC4)ncc3Cl)ccc2n(C(C)C)c1=O (stereo partly drawn) [compound 476, 2-[(6-{[5-chloro-2-(4-{[(3S,5S)-5-({[2-(2,6-dioxopiperidin-3-yl)-1,3-dioxo-2,3-dihydro-1H-isoindol-4-yl]oxy}methyl)-1-methylpyrrolidin-3-yl]oxy}piperidin-1-yl)pyrimidin-4-yl]amino}-2-oxo-1-(propan-2-yl)-1,2-dihydroquinolin-3-yl)oxy]-N-methylacetamide] | 10 to 50 | < 50
